Experiments:
Alternaria brassicae = test: In vivo preventive test on Alternaria brassicae (leaf spot on radish or cabbage); conditions: 500 ppm of active ingredient, preventive spray on radish or cabbage, evaluated 3 to 4 days after inoculation, read-out: efficacy
How it was run: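 Young radish or cabbage plants were sprayed with compound dissolved in DMSO/acetone/Tween 80 and diluted in water; controls received solvent only. Inoculation by spraying A. brassicae spore suspension 24 h later, then 3–4 days at 20 °C and 100% relative humidity.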

Alternaria alternata = Alternaria alternata in vitro cell test; assay type: cell-based; conditions: 120 h, 20 ppm of active ingredient, liquid culture, 5 days incubation, spectrometric measurement of mycelium growth, read-out: efficacy (inhibition of fungal growth)
How it was run: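 Liquid culture assay in which A. alternata spores in medium received DMSO-solubilized compound (final DMSO ≤1%). After 5 days, mycelium growth was measured spectrometrically. Inhibition was calculated against fungicide-free control wells.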

[1] = test system: Colletotrichum lindemuthianum; test: B-8. Colletotrichum lindemuthianum in vitro cell test; assay type: cell-based; conditions: 144 h, 20 ppm of active ingredient, 6 days incubation, liquid culture, absorbance, read-out: efficacy (inhibition of fungal growth)
How it was run: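 Spore suspension of C. lindemuthianum in liquid medium exposed to DMSO-solubilized compounds (final DMSO ≤1%) for 6 days. Mycelial growth read by absorbance, with inhibition calculated relative to compound-free control wells.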

[2] = test system: Colletotrichum lindemuthianum; test: In vivo preventive test on Colletotrichum lindemuthianum (leaf spot on bean); conditions: 168 h, 500 ppm of active ingredient, preventive spray on bean, evaluated 7 days after inoculation, read-out: efficacy
Description: B-5. In Vivo Preventive Test on Colletotrichum lindemuthianum (Leaf Spot on Bean) [table] The active ingredients were made soluble and homogenized in a mixture of Dimethyl sulfoxide/Acetone/Tween® 80 and then diluted in water to the desired concentration. The young plants of bean were treated by spraying the active ingredient prepared as described above. Control plants were treated only with an aqueous solution of Acetone/Dimethyl sulfoxide/Tween® 80. After 24 hours, the plants were contaminated by spraying the leaves with an aqueous suspension of Colletotrichum lindemuthianum spores. The contaminated bean plants were incubated for 24 hours at 20° C. and at 100% relative humidity and then for 6 days at 20° C. and at 90% relative humidity.

[3] = Measurement of Log P values by HPLC on reversed phase columns (EEC directive 79/831 Annex V.A8); assay type: physicochemical; conditions: reversed phase HPLC column
How it was run: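 Reversed-phase HPLC with UV detection per EEC 79/831 Annex V.A8, linear 10–95% acetonitrile gradient. Aqueous eluent: 0.1% formic acid (acidic), 0.001 M ammonium acetate (neutral), or 0.1% phosphoric acid (acidic); multiple values in one method joined by "+".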

Sphaerotheca fuliginea = test: In vivo preventive test on Sphaerotheca fuliginea (powdery mildew on cucurbits); conditions: Podosphaera fuliginea, 192 h; 500 ppm of active ingredient; preventive spray on gherkin; evaluated 8 days after inoculation; read-out: efficacy
How it was run: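 Young gherkin plants were sprayed with compound in DMSO/acetone/Tween 80 diluted in water. They were inoculated 24 h later with a spore suspension of Sphaerotheca fuliginea. Plants were then kept for 8 days at 20 °C and 70–80% relative humidity.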

Pyrenophora teres [4] = test: In vivo preventive test on Pyrenophora teres (net blotch on barley); conditions: 240 h, 500 ppm of active ingredient, preventive spray on barley, evaluated 10 days after inoculation, read-out: efficacy
Description: B-3. In Vivo Preventive Test on Pyrenophora Teres (Net Blotch on Barley) [table] The active ingredients were made soluble and homogenized in a mixture of Dimethyl sulfoxide/Acetone/Tween® 80 and then diluted in water to the desired concentration. The young plants of barley were treated by spraying the active ingredient prepared as described above. Control plants were treated only with an aqueous solution of Acetone/Dimethyl sulfoxide/Tween® 80. After 24 hours, the plants were contaminated by spraying the leaves with an aqueous suspension of Pyrenophora teres spores. The contaminated barley plants were incubated for 48 hours at 20° C. and at 100% relative humidity and then for 8 days at 20° C. and at 70-80% relative humidity.

Botrytis cinerea [5] = test: In vivo preventive test on Botrytis cinerea (grey mould); conditions: 500 ppm of active ingredient, preventive spray on gherkin or cabbage, evaluated 4 to 5 days after inoculation, read-out: efficacy
How it was run: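 Young gherkin or cabbage plants were sprayed with compound in DMSO/acetone/Tween 80 diluted in water, then inoculated 24 hours later with a B. cinerea spore suspension. Incubation lasted 4 to 5 days: gherkin at 17° C., 90% relative humidity; cabbage at 20° C., 100% relative humidity.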

Botrytis cinerea [6] = test: B-11. Botrytis cinerea in vitro cell test; assay type: cell-based; conditions: 144 h, 20 ppm of active ingredient, 6 days incubation, liquid culture, absorbance, read-out: efficacy (inhibition of fungal growth)
How it was run: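 B. cinerea spores were grown in liquid culture with compound (DMSO ≤1% final). Mycelium growth was measured spectrometrically after 6 days, with inhibition taken as absorbance relative to untreated control wells.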

Pyrenophora teres [7] = test: B-10. Pyrenophora teres in vitro cell test; assay type: cell-based; conditions: 144 h, 20 ppm of active ingredient, 6 days incubation, liquid culture, absorbance, read-out: efficacy (inhibition of fungal growth)
How it was run: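 Liquid-culture assay on a P. teres spore suspension with compounds added to the medium from DMSO solutions, final DMSO ≤1%. Mycelium growth read spectrometrically after 6 days. Inhibition calculated from absorbance against untreated control wells.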

[8] = method [a]: LC-UV, acidic range, 0.1% formic acid in water and acetonitrile as eluent

chromatographic logP [3, 8]	chromatographic logP ([3]; method [b]: LC-UV, neutral range, 0.001 molar ammonium acetate solution in water and acetonitrile as eluent)	Structure (SMILES)	pest or weed control at 500 ppm (Alternaria brassicae) [%]	inhibition at 20 ppm (Alternaria alternata) [%]	inhibition at 20 ppm [1] [%]	pest or weed control at 500 ppm [2] [%]	pest or weed control at 500 ppm (Sphaerotheca fuliginea) [%]	pest or weed control at 500 ppm (Pyrenophora teres [4]) [%]	pest or weed control at 500 ppm (Botrytis cinerea [5]) [%]	inhibition at 20 ppm (Botrytis cinerea [6]) [%]	inhibition at 20 ppm (Pyrenophora teres [7]) [%]
3.8	3.79	Cc1ccc2c(c1)CCC[C@@H]2NC(=O)c1c(Oc2cccc(C(F)(F)F)c2)cnc2c1OCCO2 (racemic) [I-112]	90 to 100	90 to 100	90 to 100	90 to 100	90 to 100	80 to 89	90 to 100	–	–
4.28	–	CCN(CCc1ccccc1)C(=O)c1c(Oc2cccc(C(F)(F)F)c2)nnc2ccccc12 [I-205]	–	–	–	–	70 to 79	80 to 89	80 to 89	–	–
3.77	–	O=C(NC[C@H](F)c1ccc(Cl)cc1Cl)c1c(Oc2cccc(C(F)(F)F)c2)cnc2c1OCCO2 (racemic) [I-108]	90 to 100	90 to 100	90 to 100	90 to 100	90 to 100	90 to 100	90 to 100	–	–
4.14	–	Cc1ccc(C(F)(F)CNC(=O)c2c(Oc3cccc(C(F)(F)F)c3)cnc3ccoc23)c(C)c1 [I-066, N-[2-(2,4-dimethylphenyl)-2,2-difluoro-ethyl]-6-[3-(trifluoro-methyl)phenoxy]furo[3,2-b]pyridine-7-carboxamide]	90 to 100	90 to 100	90 to 100	–	90 to 100	70 to 79	90 to 100	90 to 100	90 to 100
4.62	–	C=Cc1ccc(C(F)(F)CNC(=O)c2c(Oc3cccc(C(F)(F)F)c3)nnc3ccccc23)c(Cl)c1 [I-064]	90 to 100	90 to 100	90 to 100	–	–	80 to 89	90 to 100	90 to 100	–
4.77	–	Cc1ccc(CCNC(=O)c2c(Oc3cccc(C(F)(F)F)c3)nnc3ccsc23)c(C)c1 [I-231]	90 to 100	–	–	–	90 to 100	70 to 79	–	80 to 89	–
4.66	–	Cc1ccc(C(F)(F)CNC(=O)c2c(Oc3cccc(C(F)(F)F)c3)nnc3cc(F)ccc23)c(Cl)c1 [I-171]	90 to 100	90 to 100	90 to 100	–	–	70 to 79	–	90 to 100	90 to 100
4.15	–	Cc1ccc(C(F)(F)CNC(=O)c2c(Oc3cccc(C(F)(F)F)c3)nnc3cnccc23)c(C)c1 [I-162]	90 to 100	90 to 100	90 to 100	–	–	70 to 79	–	90 to 100	90 to 100
4.45	–	Cc1ccc(C(F)(F)CNC(=O)c2c(Oc3cccc(C4CC4)c3)nnc3ccccc23)c(C)c1 [I-218]	90 to 100	90 to 100	90 to 100	90 to 100	–	80 to 89	90 to 100	90 to 100	90 to 100

The next lines start with the compound.

Structure (SMILES)	chromatographic logP [3, 8]	chromatographic logP ([3]; method [b]: LC-UV, neutral range, 0.001 molar ammonium acetate solution in water and acetonitrile as eluent)	pest or weed control at 500 ppm (Alternaria brassicae) [%]	inhibition at 20 ppm (Alternaria alternata) [%]	inhibition at 20 ppm [1] [%]	pest or weed control at 500 ppm [2] [%]	pest or weed control at 500 ppm (Sphaerotheca fuliginea) [%]	pest or weed control at 500 ppm (Pyrenophora teres [4]) [%]	pest or weed control at 500 ppm (Botrytis cinerea [5]) [%]	inhibition at 20 ppm (Botrytis cinerea [6]) [%]	inhibition at 20 ppm (Pyrenophora teres [7]) [%]
Cc1cccc(Oc2nnc3ccccc3c2C(=O)NCC(F)(F)c2ccc(C)cc2C)c1 [I-017]	4.11	–	90 to 100	90 to 100	90 to 100	–	90 to 100	70 to 79	90 to 100	–	–
Cc1cccc(Oc2nnc3ccccc3c2C(=O)NCC(F)(F)c2ccc(Cl)cc2)c1 [I-014]	3.87	–	90 to 100	90 to 100	90 to 100	–	90 to 100	70 to 79	90 to 100	–	–
Cc1ccc2c(C(=O)NC[C@H](F)c3ccc(Cl)cc3Cl)c(Oc3cccc(C(F)(F)F)c3)nnc2c1 (racemic) [I-047]	4.45	–	90 to 100	90 to 100	90 to 100	–	90 to 100	80 to 89	90 to 100	–	–
Cc1cccc(Oc2nnc3ccccc3c2C(=O)NCC(F)(F)c2ccc(Br)cc2Cl)c1 [I-015]	4.37	–	90 to 100	90 to 100	90 to 100	–	90 to 100	70 to 79	90 to 100	–	–
Cc1ccc([C@@H](F)CNC(=O)c2c(Oc3cccc(Cl)c3)nnc3ccccc23)cc1C (racemic) [I-048]	4.05	–	90 to 100	90 to 100	90 to 100	90 to 100	–	90 to 100	90 to 100	90 to 100	–
Cc1ccc([C@@H](F)CNC(=O)c2c(Oc3cccc(C(F)(F)F)c3)cnc3ccccc23)cc1C (racemic) [I-056]	4.33	–	90 to 100	90 to 100	90 to 100	90 to 100	90 to 100	–	90 to 100	90 to 100	–
Cc1ccc([C@@H](F)CNC(=O)c2c(Oc3cccc(C(F)(F)F)c3)cnc3ccccc23)c(Cl)c1 (racemic) [I-060]	4.4	–	90 to 100	90 to 100	90 to 100	90 to 100	90 to 100	–	90 to 100	90 to 100	–
Cc1ccc(CCNC(=O)c2c(Oc3cccc(C(F)(F)F)c3)nnc3ccccc23)c(C)c1 [I-230]	–	–	90 to 100	90 to 100	90 to 100	–	90 to 100	80 to 89	90 to 100	90 to 100	–
Cc1ccc([C@@H](F)CNC(=O)c2c(Oc3cccc(Cl)c3)nnc3ccccc23)c(Cl)c1 (racemic) [I-052]	4.19	–	90 to 100	90 to 100	90 to 100	90 to 100	90 to 100	–	90 to 100	90 to 100	–
Cc1cc(C(F)F)ccc1[C@@H](F)CNC(=O)c1c(Oc2cccc(Cl)c2)nnc2ccccc12 (racemic) [I-049]	3.84	–	90 to 100	90 to 100	90 to 100	–	–	80 to 89	90 to 100	90 to 100	–
